Data as given in US20250243233A1, “BIOBASED SURFACTANTS” (ECOLE POLYTECHNIQUE FEDERALE DE LAUSANNE (EPFL), priority 2022, published 2025).
Blank lines part the entries; values can stand above or below the compound they belong to.

What was measured:
Format in all cases: physicochemical
[1] = Interfacial tension measurements, water/oil pendant drop test (CMC from interfacial tension-concentration graph)
Description: To test the amphiphilic properties of each molecule, we measured the water/oil interfacial tension using pendant drop test. In a typical test, we inject the organic solution with surfactants slowly into the water phase with a bent needle with 1 mm diameter. The interfacial tension is calculated by the force balance with the buoyancy force. The critical micelle concentration (CMC) can be obtained by checking the critical point of interfacial tension-concentration graph. […] The CMC of MAX10 and MAX8 are around 2.5 mg/mL.

[2] = Emulsion stability measurements (water/cyclohexane emulsions, bright-field microscope); conditions: water/oil emulsion (67% water and 33% cyclohexane) containing 1% surfactant, FIG. 2
Description: The emulsions were prepared by mixing 1 ml of water (with 1 mg/ml of Acian blue dye) and 2 ml cyclohexane containing 3,5-O-dodecylidene-xylose or 2-((dodecyloxy)methyl) tetrahydrofuran-3,4-diol) at a concentration of 0.1% and then mixed by vortex for 30 s.
Emulsions were characterized using a bright-field microscope (Leitz Ergolux) during the storage after preparation. […] Besides, a water/oil emulsion (67% water and 33% cyclohexane) containing 1% 3,5-O-dodecylidene-xylose was kept for about 1 year to observe its possible destablization.

[3] = Accelerated aqueous decomposition test (boiling in water, HPLC); conditions: FIG. 16
Description: HPLC analyses for the accelerated aqueous decomposition of MAXn were performed using a HPX-87H Column (300 mm×7.8 mm; column temperature=60° C.) using pH 2 water as eluent (flow rate=0.6 ml·min^−1, Vinj=20 μL) with 1260 Refractive Index Detector (RID) (G1362A)
To gain insight into the degradation products of 1,2-O-dodecylidene-xylose (MAX12) in water, an accelerating aging test was performed by boiling it in water. Samples were taken at various time points and analyzed by HPLC (pH2 aqueous-phase chromatography, HPX-87H Column (300 mm×7.8 mm; 125-0140), 1260 Refractive Index Detector (RID) (G1362A), flow rate=0.6 ml·min^−1, Vinj=20 μL, column temperature=60° C.). […] And to our knowledge, fatty aldehydes can be oxidized into fatty acids catalyzed by the aldehyde dehydrogenase enzyme. Xylose and fatty acids are readily biodegradable.

[4] = quick emulsion test in ethyl acetate and water; conditions: non-miscible system of ethyl acetate and water, mixture neutralized until pH 7, FIG. 1a
Source text: The mixture was neutralized until pH 7, and dissolved in a non-miscible system of ethyl acetate and water to do a quick emulsion test.

[5] = water/oil interfacial tension, FIG. 7

- critical micelle concentration (CMC) [1, 5]: around 2.5 mg/mL
Compound: 3,5-O-decylidene-xylose [MAX10]

- critical micelle concentration (CMC) [1, 5]: around 2.5 mg/mL
Compound: 3,5-O-octylidene-xylose [MAX8]

More lines, now with the values behind:

Compound: 3,5-O-dodecylidene-xylose [MAX12]
- state of emulsion after about 1 year storage [2]: most of the volume maintained the form of emulsion
- critical micelle concentration (CMC) [1, 5]: 0.35 mg/mL
- time to cleavage into xylose and fatty aldehyde [3]: 2 days

Compound: CCCCCCCCO [1-octanol]
- phase separation / formation of emulsion [4]: phase separated

Compound: CCCCCCCCCCCCOCC1OCC(O)C1O (centres unmarked) [2-((dodecyloxy)methyl)tetrahydrofuran-3,4-diol]
- interfacial tension plateau value ([1]; cyclohexane/water): about 1.0 mN/m
- critical micelle concentration (CMC) ([1]; cyclohexane/water, FIG. 8): around 0.5 g/L
